Results from patent US7880007B2, “Bicyclic substituted phenyl piperidine modulators of muscarinic receptors” (Vertex Pharmaceuticals Incorporated, priority 2004, dated 2011).

Assays:
Type in all cases: cell-based
[1] = target: T1, M1 muscarinic receptor (Homo sapiens, UniProt P11229); assay: Functional mobilization of intracellular calcium (FLIPR), M1-CHO cells; details: for M1 Activity: M1-CHO cells, calcium mobilization (FLIPR)
T1 construct: expressed in transfected cells; host or cells: CHO (M1-CHO)
T1 sequence (P11229 1-460): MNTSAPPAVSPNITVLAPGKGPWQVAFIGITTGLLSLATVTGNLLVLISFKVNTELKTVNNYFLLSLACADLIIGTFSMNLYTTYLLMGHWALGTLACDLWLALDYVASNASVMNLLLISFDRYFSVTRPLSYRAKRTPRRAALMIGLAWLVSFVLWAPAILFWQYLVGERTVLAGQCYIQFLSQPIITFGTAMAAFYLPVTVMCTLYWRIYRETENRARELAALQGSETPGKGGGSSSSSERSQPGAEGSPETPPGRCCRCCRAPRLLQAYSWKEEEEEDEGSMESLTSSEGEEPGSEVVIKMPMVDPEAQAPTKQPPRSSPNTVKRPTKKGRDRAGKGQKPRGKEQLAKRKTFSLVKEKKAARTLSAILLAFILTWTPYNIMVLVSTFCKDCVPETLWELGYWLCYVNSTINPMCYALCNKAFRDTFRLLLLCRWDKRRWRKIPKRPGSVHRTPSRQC
How it was run: (§1)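 CHO cells expressing human M1–M4 receptors loaded with Fluo-3 AM or Calcium 3 dye (1 mM probenecid, pH 7.4); 0.5% DMSO final. Agonist mode: compound added directly; antagonist mode: 15 min pre-incubation or co-application, then carbachol at EC80. Fluorescence read 60 s on FLIPR; efficacy relative to carbachol maximum.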

[2] = target: T2, M2 muscarinic receptor (Homo sapiens, UniProt P08172); assay: Functional mobilization of intracellular calcium (FLIPR), M2-CHO cells; details: for M2 Activity: M2-CHO cells, calcium mobilization (FLIPR)
T2 construct: expressed in transfected cells; host or cells: CHO (M2-CHO)
T2 sequence (P08172 1-466): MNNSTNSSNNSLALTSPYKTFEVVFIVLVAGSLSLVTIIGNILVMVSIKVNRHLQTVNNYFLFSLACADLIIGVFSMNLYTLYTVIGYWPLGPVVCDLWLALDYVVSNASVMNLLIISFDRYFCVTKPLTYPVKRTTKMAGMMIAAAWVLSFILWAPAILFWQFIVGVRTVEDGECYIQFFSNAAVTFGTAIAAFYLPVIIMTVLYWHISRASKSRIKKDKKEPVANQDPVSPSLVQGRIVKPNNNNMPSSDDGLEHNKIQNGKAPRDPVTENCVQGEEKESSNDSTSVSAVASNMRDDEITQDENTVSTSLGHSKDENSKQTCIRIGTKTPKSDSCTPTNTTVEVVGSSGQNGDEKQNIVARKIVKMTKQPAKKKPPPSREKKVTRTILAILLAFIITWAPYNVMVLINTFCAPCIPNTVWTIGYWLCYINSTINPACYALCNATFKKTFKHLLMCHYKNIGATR
How it was run: as §1

[3] = target: T3, M3 muscarinic receptor (Homo sapiens, UniProt P20309); assay: Functional mobilization of intracellular calcium (FLIPR), M3-CHO cells; details: for M3 Activity: M3-CHO cells, calcium mobilization (FLIPR)
T3 construct: expressed in transfected cells; host or cells: CHO (M3-CHO)
How it was run: as §1

[4] = target: T4, M4 muscarinic receptor (Homo sapiens, UniProt P08173); assay: Functional mobilization of intracellular calcium (FLIPR), M4-CHO cells; details: for M4 Activity: M4-CHO cells, calcium mobilization (FLIPR)
T4 construct: expressed in transfected cells; host or cells: CHO (M4-CHO)
T4 sequence (P08173 1-479): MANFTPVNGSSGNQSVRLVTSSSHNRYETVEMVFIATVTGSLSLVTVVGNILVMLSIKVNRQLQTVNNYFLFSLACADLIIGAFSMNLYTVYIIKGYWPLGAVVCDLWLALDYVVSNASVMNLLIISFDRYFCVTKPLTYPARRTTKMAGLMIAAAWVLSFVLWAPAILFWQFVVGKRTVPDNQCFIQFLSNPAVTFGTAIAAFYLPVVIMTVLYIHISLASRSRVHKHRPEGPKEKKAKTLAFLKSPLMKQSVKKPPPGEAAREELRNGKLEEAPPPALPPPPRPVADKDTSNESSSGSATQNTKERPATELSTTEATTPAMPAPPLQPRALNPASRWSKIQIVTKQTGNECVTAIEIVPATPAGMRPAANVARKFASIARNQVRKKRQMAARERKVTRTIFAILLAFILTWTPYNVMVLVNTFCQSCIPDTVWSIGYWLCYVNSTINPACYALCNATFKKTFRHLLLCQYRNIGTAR
How it was run: as §1

[5] = 100% efficacy = maximum response obtained with the Carbachol control

T3 sequence (P20309 whole entry): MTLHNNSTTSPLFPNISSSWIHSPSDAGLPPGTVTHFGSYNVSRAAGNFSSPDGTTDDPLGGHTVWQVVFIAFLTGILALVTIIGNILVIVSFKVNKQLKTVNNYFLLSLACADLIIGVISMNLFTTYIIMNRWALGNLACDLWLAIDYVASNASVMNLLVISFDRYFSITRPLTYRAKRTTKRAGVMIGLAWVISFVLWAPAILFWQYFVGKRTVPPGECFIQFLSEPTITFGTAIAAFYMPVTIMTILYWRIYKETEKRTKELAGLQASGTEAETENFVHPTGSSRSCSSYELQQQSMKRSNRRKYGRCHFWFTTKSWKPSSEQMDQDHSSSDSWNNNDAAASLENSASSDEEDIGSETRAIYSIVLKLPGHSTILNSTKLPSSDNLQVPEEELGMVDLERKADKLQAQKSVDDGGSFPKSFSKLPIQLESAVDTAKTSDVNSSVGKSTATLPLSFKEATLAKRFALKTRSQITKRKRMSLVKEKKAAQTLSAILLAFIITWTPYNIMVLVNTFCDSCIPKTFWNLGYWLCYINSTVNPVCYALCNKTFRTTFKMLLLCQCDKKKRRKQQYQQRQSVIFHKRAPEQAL

Structure (SMILES)	Emax [1, 5]	M1 Activity [1]	Emax [2, 5]	M2 Activity [2]	Emax [3, 5]	M3 Activity [3]	Emax [4, 5]	M4 Activity [4]	M1 Efficacy [1, 5]	M2 Efficacy [2, 5]	M3 Efficacy [3, 5]	M4 Efficacy [4, 5]
CCNC(=O)c1ccc(-c2ccc(OC)c(C3CCN([C@H]4C[C@H]5CC[C@H]4C5)CC3)c2)cc1 [Compound 84]	< 25%	+ (activity was measured to be greater than 5.0 μM)	< 25%	+ (activity was measured to be greater than 5.0 μM)	< 25%	+ (activity was measured to be greater than 5.0 μM)	< 25%	+ (activity was measured to be greater than 5.0 μM)	–	–	–	–
COc1ccccc1C1CCN([C@@H]2C[C@H]3CC[C@H]2C3)CC1 [Compound 85]	25 to 100%	+ (activity was measured to be greater than 5.0 μM)	< 25%	+ (activity was measured to be greater than 5.0 μM)	< 25%	+ (activity was measured to be greater than 5.0 μM)	25 to 100%	+++ (activity was measured to be less than 1.0 μM)	–	–	–	–
Cc1ccccc1C1CCN(C2CC3CCC(C3)C2)CC1 (stereo not shown) [Compound 86]	25 to 100%	++ (activity was measured to be from 1.0 μM to 5.0 μM)	< 25%	+ (activity was measured to be greater than 5.0 μM)	< 25%	+ (activity was measured to be greater than 5.0 μM)	25 to 100%	+++ (activity was measured to be less than 1.0 μM)	–	–	–	–
COCCNC(=O)c1ccc(-c2ccc(OC)c(C3CCN([C@H]4C[C@H]5CC[C@H]4C5)CC3)c2)cc1 [Compound 87]	< 25%	+ (activity was measured to be greater than 5.0 μM)	< 25%	+ (activity was measured to be greater than 5.0 μM)	< 25%	+ (activity was measured to be greater than 5.0 μM)	< 25%	+ (activity was measured to be greater than 5.0 μM)	–	–	–	–
Clc1ccccc1-c1ccccc1C1CCN([C@H]2C[C@H]3CC[C@H]2C3)CC1 [Compound 88]	< 25%	+ (activity was measured to be greater than 5.0 μM)	< 25%	+ (activity was measured to be greater than 5.0 μM)	< 25%	+ (activity was measured to be greater than 5.0 μM)	25 to 100%	++ (activity was measured to be from 1.0 μM to 5.0 μM)	–	–	–	–
COc1ccccc1C1CCN(C2CCOCC2)CC1 [Compound 90]	25 to 100%	+ (activity was measured to be greater than 5.0 μM)	< 25%	+ (activity was measured to be greater than 5.0 μM)	< 25%	+ (activity was measured to be greater than 5.0 μM)	25 to 100%	+++ (activity was measured to be less than 1.0 μM)	–	–	–	–
COc1ccc(-c2ccccc2C#N)cc1C1CCN([C@@H]2C[C@H]3CC[C@H]2C3)CC1 [Compound 92]	< 25%	+ (activity was measured to be greater than 5.0 μM)	< 25%	+ (activity was measured to be greater than 5.0 μM)	< 25%	+ (activity was measured to be greater than 5.0 μM)	< 25%	+ (activity was measured to be greater than 5.0 μM)	–	–	–	–
Cc1ccccc1C1CCN([C@H]2C[C@H]3CC[C@H]2C3)CC1 [Compound 93]	–	++ (activity was measured to be from 1.0 μM to 5.0 μM)	–	+ (activity was measured to be greater than 5.0 μM)	–	+ (activity was measured to be greater than 5.0 μM)	–	+++ (activity was measured to be less than 1.0 μM)	++ (efficacy was calculated to be from 100% to 25%)	+ (efficacy was calculated to be less than 25%)	+ (efficacy was calculated to be less than 25%)	++ (efficacy was calculated to be from 100% to 25%)
CCOC(=O)N1CCC(CN2CCC(c3cc(C(F)(F)F)ccc3C)CC2)CC1 [Compound 94]	25 to 100%	+++ (activity was measured to be less than 1.0 μM)	25 to 100%	+++ (activity was measured to be less than 1.0 μM)	< 25%	++ (activity was measured to be from 1.0 μM to 5.0 μM)	25 to 100%	+++ (activity was measured to be less than 1.0 μM)	–	–	–	–
COc1ccc(-c2cccc(C#N)c2)cc1C1CCN([C@H]2C[C@H]3CC[C@H]2C3)CC1 [Compound 97]	< 25%	+ (activity was measured to be greater than 5.0 μM)	< 25%	+ (activity was measured to be greater than 5.0 μM)	< 25%	+ (activity was measured to be greater than 5.0 μM)	25 to 100%	+ (activity was measured to be greater than 5.0 μM)	–	–	–	–
CCN(CC)C(=O)c1ccc(-c2ccc(OC)c(C3CCN([C@H]4C[C@H]5CC[C@H]4C5)CC3)c2)cc1 [Compound 98]	< 25%	+ (activity was measured to be greater than 5.0 μM)	< 25%	+ (activity was measured to be greater than 5.0 μM)	< 25%	+ (activity was measured to be greater than 5.0 μM)	< 25%	++ (activity was measured to be from 1.0 μM to 5.0 μM)	–	–	–	–
CNC(=O)c1ccc(-c2ccc(OC)c(C3CCN(C4CC5CCC(C5)C4)CC3)c2)cc1Cl (stereo not shown) [Compound 100]	< 25%	+ (activity was measured to be greater than 5.0 μM)	< 25%	+ (activity was measured to be greater than 5.0 μM)	< 25%	+ (activity was measured to be greater than 5.0 μM)	25 to 100%	++ (activity was measured to be from 1.0 μM to 5.0 μM)	–	–	–	–
COc1ccc(-c2ccc(S(C)(=O)=O)cc2)cc1C1CCN([C@H]2C[C@H]3CC[C@H]2C3)CC1 [Compound 102]	< 25%	+ (activity was measured to be greater than 5.0 μM)	< 25%	+ (activity was measured to be greater than 5.0 μM)	< 25%	+ (activity was measured to be greater than 5.0 μM)	25 to 100%	++ (activity was measured to be from 1.0 μM to 5.0 μM)	–	–	–	–
COc1c(F)cc(F)cc1C1CCN([C@@H]2C[C@H]3CC[C@H]2C3)CC1 [Compound 103]	< 25%	+ (activity was measured to be greater than 5.0 μM)	< 25%	+ (activity was measured to be greater than 5.0 μM)	< 25%	+ (activity was measured to be greater than 5.0 μM)	< 25%	++ (activity was measured to be from 1.0 μM to 5.0 μM)	–	–	–	–
